In the NIST ThermoML archive (doi:10.1021/je060355j):

Columns and labels:
[1] = excess molar enthalpy (molar enthalpy of mixing); xn = mol fraction of the nth substance listed; conditions: 101.32 kPa, Liquid
[2] = xn = mol fraction of the nth substance listed; conditions: 101.32 kPa, Liquid

CCCOC=O [propyl methanoate] + CCCCCC
Conditions | excess molar enthalpy [kcal/mol] | mass density [kg/m3]
[1], 291.15 K, x1 = 0.0969 | 0.118 | –
[1], 291.15 K, x1 = 0.186 | 0.187 | –
[1], 291.15 K, x1 = 0.2656 | 0.235 | –
[1], 291.15 K, x1 = 0.3316 | 0.264 | –
[1], 291.15 K, x1 = 0.3921 | 0.282 | –
[1], 291.15 K, x1 = 0.4458 | 0.289 | –
[1], 291.15 K, x1 = 0.4941 | 0.29 | –
[1], 291.15 K, x1 = 0.5356 | 0.287 | –
[1], 291.15 K, x1 = 0.5758 | 0.274 | –
[1], 291.15 K, x1 = 0.6321 | 0.258 | –
[1], 291.15 K, x1 = 0.6905 | 0.23 | –
[1], 291.15 K, x1 = 0.7533 | 0.195 | –
[1], 291.15 K, x1 = 0.8171 | 0.154 | –
[1], 291.15 K, x1 = 0.885 | 0.0993 | –
[1], 291.15 K, x1 = 0.9453 | 0.0458 | –
[1], 318.15 K, x1 = 0.0848 | 0.113 | –
[1], 318.15 K, x1 = 0.1889 | 0.202 | –
[1], 318.15 K, x1 = 0.2934 | 0.268 | –
[1], 318.15 K, x1 = 0.3854 | 0.305 | –
[1], 318.15 K, x1 = 0.4624 | 0.32 | –
[1], 318.15 K, x1 = 0.521 | 0.32 | –
[1], 318.15 K, x1 = 0.5945 | 0.309 | –
[1], 318.15 K, x1 = 0.6631 | 0.284 | –
[1], 318.15 K, x1 = 0.7368 | 0.245 | –
[1], 318.15 K, x1 = 0.8154 | 0.19 | –
[1], 318.15 K, x1 = 0.8906 | 0.124 | –
[1], 318.15 K, x1 = 0.9523 | 0.0594 | –
[2], 291.15 K, x1 = 0.0544 | – | 670.1
[2], 291.15 K, x1 = 0.0893 | – | 676
[2], 291.15 K, x1 = 0.1509 | – | 687.4
[2], 291.15 K, x1 = 0.2001 | – | 696.5
[2], 291.15 K, x1 = 0.248 | – | 705.8
[2], 291.15 K, x1 = 0.2521 | – | 706.6
[2], 291.15 K, x1 = 0.3979 | – | 737.6
[2], 291.15 K, x1 = 0.5017 | – | 761.8
[2], 291.15 K, x1 = 0.6122 | – | 789.6
[2], 291.15 K, x1 = 0.6985 | – | 813.1
[2], 291.15 K, x1 = 0.7473 | – | 827
[2], 291.15 K, x1 = 0.8013 | – | 842.8
[2], 291.15 K, x1 = 0.8499 | – | 857.8
[2], 291.15 K, x1 = 0.9057 | – | 875.5
[2], 291.15 K, x1 = 0.9568 | – | 892.9
[2], 291.15 K, x1 = 1 | – | 907.8
[2], 298.15 K, x1 = 0.0787 | – | 668.91
[2], 298.15 K, x1 = 0.1478 | – | 681.52
[2], 298.15 K, x1 = 0.2237 | – | 695.63
[2], 298.15 K, x1 = 0.2941 | – | 709.36
[2], 298.15 K, x1 = 0.3597 | – | 722.93
[2], 298.15 K, x1 = 0.4297 | – | 738.37
[2], 298.15 K, x1 = 0.4878 | – | 751.68
[2], 298.15 K, x1 = 0.5453 | – | 765.36
[2], 298.15 K, x1 = 0.6019 | – | 779.74
[2], 298.15 K, x1 = 0.6599 | – | 794.74
[2], 298.15 K, x1 = 0.7154 | – | 810
[2], 298.15 K, x1 = 0.765 | – | 824.15
[2], 298.15 K, x1 = 0.812 | – | 838.34
[2], 298.15 K, x1 = 0.8656 | – | 854.66
[2], 298.15 K, x1 = 0.921 | – | 872.18
[2], 298.15 K, x1 = 0.9567 | – | 884.05
[2], 298.15 K, x1 = 1 | – | 899.08
[2], 308.15 K, x1 = 0.0693 | – | 657.5
[2], 308.15 K, x1 = 0.1125 | – | 665.1
[2], 308.15 K, x1 = 0.1993 | – | 680.76
[2], 308.15 K, x1 = 0.3036 | – | 701.12
[2], 308.15 K, x1 = 0.3975 | – | 720.81
[2], 308.15 K, x1 = 0.5069 | – | 745.56
[2], 308.15 K, x1 = 0.5902 | – | 765.82
[2], 308.15 K, x1 = 0.7035 | – | 795.66
[2], 308.15 K, x1 = 0.8034 | – | 824.55
[2], 308.15 K, x1 = 0.9002 | – | 854.72
[2], 308.15 K, x1 = 0.9482 | – | 870.44
[2], 308.15 K, x1 = 1 | – | 888.36
[2], 318.15 K, x1 = 0.0796 | – | 648.93
[2], 318.15 K, x1 = 0.1547 | – | 661.76
[2], 318.15 K, x1 = 0.2278 | – | 674.93
[2], 318.15 K, x1 = 0.2909 | – | 687.08
[2], 318.15 K, x1 = 0.3611 | – | 701.46
[2], 318.15 K, x1 = 0.4273 | – | 715.75
[2], 318.15 K, x1 = 0.487 | – | 729.26
[2], 318.15 K, x1 = 0.5747 | – | 750.24
[2], 318.15 K, x1 = 0.6031 | – | 757.34
[2], 318.15 K, x1 = 0.6617 | – | 772.47
[2], 318.15 K, x1 = 0.7118 | – | 785.91
[2], 318.15 K, x1 = 0.7661 | – | 801.18
[2], 318.15 K, x1 = 0.8123 | – | 814.59
[2], 318.15 K, x1 = 0.8602 | – | 829.22
[2], 318.15 K, x1 = 0.9109 | – | 845.53
[2], 318.15 K, x1 = 0.9581 | – | 860.97
[2], 318.15 K, x1 = 1 | – | 875.32
